From US20240197681A1, “METHODS AND COMPOSITIONS RELATING TO PS[…] SEROTONIN RECEPTOR MODULATORS” (Terran Biosciences Inc., priority 2021, published 2024)
“Also recorded” adds a separate entry of the source. Like-named read-outs stand apart in the source and are kept apart here.

What was measured:
Healthy Volunteers [1] = test: Resting-state fMRI: global brain connectivity (GBC) and functional connectivity (FC); type: in vivo, humans; settings: ketanserin 60 minutes before LSD; for LSD induced neural changes at 300 minutes in the presence of ketanserin: absence of psychotomimetic effects
Source text: The used dataset was acquired in the course of a registered clinical trial (ClinicalTrials.gov Identifier: NCT02451072) entitled: The Role of 5-HT2A Receptor in the Perception of Self and Personal Meaning in Healthy Volunteers. Participants, study design, neuroimaging data acquisition, preprocessing and global brain connectivity calculation are detailed in Preller et al. (eLife. 2018 Oct. 25; 7:e35082. Changes in global and thalamic brain connectivity in LSD-induced altered states of consciousness are attributable to the 5-HT2A receptor, PMID: 30355445). The relevant methodological sections pertinent to the current analysis are summarized below.
24 subjects were included in the dataset (n=19 males; mean age=25.0 years, standard deviation=3.6 years, range=20-34 years). All included subjects were healthy, as confirmed by medical history, physical examination, blood analysis, electrocardiogra Mini-International Neuropsychiatric Interview (MINI-SCID) [Sheehan et al., 1998], the DSM-IV self-rating questionnaire for Axis-II personality disorders (SCIS-II) [Fydrich et al., 1997], and the Hopkins Symptom Checklist (SCL-90R) [Franke, 1995]. Subjects were required to abstain from prescription or illicit drugs, alcohol, smoking and caffeine.
The study was designed as a fully double-blind, randomized, within-subject cross-over study. During a session, subjects were pretreated with either a placebo or the 5-HT2A receptor antagonist Ketanserin 60 minutes before being treated with either a placebo or LSD. Thus, each subject participated in 3 sessions in which they underwent each of the following pretreatment · treatment conditions in a randomized, balanced order: • a) Placebo+placebo • b) Placebo+LSD • c) Ketanserin+LSD Two resting-state scans were performed, one 75 and the other 300 minutes after treatment. To assess participants' experience, a retrospective self-report questionnaire (5D-ASC, [Dittrich, 1998]) was administered 720 minutes after treatment, and a shorter version of the 5D-ASC 180, 250 and 360 minutes after treatment. […]

Healthy Volunteers [2] = settings: cited from earlier work; for subjective (psychotomimetic) LSD effects versus placebo at 360 minutes: 5D-ASC short version
[3] = tested on: hippocampal area CA1 in anesthetized mice; test: In vivo electrophysiology: local field potentials in hippocampal CA1; settings: for effect of ketanserin pretreatment on psilocybin-induced reduction in low frequency (delta) LFP power: ketanserin 2 mg/kg i.p. 60 minutes before psilocybin 10 mg/kg i.p., 15-25 minutes following psilocybin injection
C57Bl/6J mice [4] = test: Sucrose preference test (SPT) after chronic multimodal stress (CMMS); type: in vivo; settings: stress-susceptible male mice after 10-14 days CMMS; single drug (psilocybin 1 mg/kg i.p. or ketanserin 2 mg/kg i.p.) plus vehicle injection; 24-48 hours after injection
C57Bl/6J mice [5] = test: Female urine sniff test (FUST) after chronic multimodal stress (CMMS); type: in vivo; settings: stress-susceptible male mice after 10-14 days CMMS; single drug (psilocybin 1 mg/kg i.p. or ketanserin 2 mg/kg i.p.) plus vehicle injection; 24-48 hours after injection
5-HT2A receptor = target: T1, 5-HT2A receptor (Mus musculus, UniProt P35363); test: Head twitch response (HTR); type: in vivo, mice; settings: ketanserin 2 mg/kg 60 minutes prior to psilocybin 1 mg/kg, 15 minutes following injection
T1 construct: from tissue; host or cells: live mice (whole animal, brain receptors)

TA-CA1 synapses = test: In vitro electrophysiology: AMPA:NMDA ratios of TA-CA1 fEPSPs in hippocampal slices from treated mice; type: in vivo; settings: ketanserin 2 mg/kg 60 minutes prior to psilocybin 1 mg/kg; CMMS mice
Method: Standard methods were used to prepare […] hippocampal slices. Briefly, mice were euthanized via exposure to isoflurane followed by decapitation. Brains were excised and the hippocampus was quickly dissected from the brain and sectioned on a Leica VT1200 series vibratome in ice-cold artificial cerebrospinal fluid (ACSF) bubbled with 95% O2/5% CO2. The ACSF contained: 124 mM NaCl, 3 mM KCl, 1.25 mM NaH2PO4, 1.5 mM MgSO4, 2.5 mM CaCl2, 26 mM NaHCO3, and 10 mM glucose. Slices were allowed to recover for a minimum of 60 minutes at room temperature in ACSF in a humidified interface chamber before recording.
Use of extracellular recording, rather than whole-cell recording, was chosen for quantification of AMPA:NMDA ratios because of the complications of stress-induced changes in dendritic structure and their electrotonic influence on recordings of distal TA-CAI synapses. For quantification of AMPA:NMDA ratios, ACSF was prepared as stated, but without MgSO4, to leave NMDA channels unblocked. […] Five fEPSPs were again collected at the same stimulation intensities recorded prior to DNQX. […]
AMPA:NMDA ratios of the TA-CAI fEPSPs were quantified as described previously (A. J. Kallarackal et al., 2013 J. Neuroscience. 33, 15669-15764) in order to provide a measure of synaptic strength across slices from different mice. […]

C57Bl/6J mice [6] = test: Locomotion in open field arena; settings: ketanserin 2 mg/kg 60 minutes prior to psilocybin 5 mg/kg

T1 sequence (P35363 whole entry): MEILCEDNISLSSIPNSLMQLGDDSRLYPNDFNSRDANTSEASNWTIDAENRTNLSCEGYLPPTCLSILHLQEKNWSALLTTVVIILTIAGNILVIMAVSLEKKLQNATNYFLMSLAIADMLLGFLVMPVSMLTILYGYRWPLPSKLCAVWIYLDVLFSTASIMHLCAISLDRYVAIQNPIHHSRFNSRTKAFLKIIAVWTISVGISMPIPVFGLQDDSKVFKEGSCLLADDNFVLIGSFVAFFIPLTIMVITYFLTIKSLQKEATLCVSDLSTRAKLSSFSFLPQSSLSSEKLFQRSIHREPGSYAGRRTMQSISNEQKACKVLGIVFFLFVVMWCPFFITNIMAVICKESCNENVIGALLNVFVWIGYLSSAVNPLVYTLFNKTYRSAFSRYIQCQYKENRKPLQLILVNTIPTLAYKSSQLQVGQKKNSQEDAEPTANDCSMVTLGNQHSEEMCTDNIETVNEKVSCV

| Compound | LSD induced neural changes at 300 minutes in the presence of ketanserin (Healthy Volunteers [1]) | subjective (psychotomimetic) LSD effects versus placebo at 360 minutes (Healthy Volunteers [2]; FIG. 20 reprinted from Preller 2018) | subjective (psychotomimetic) LSD effects versus placebo at 360 minutes (Healthy Volunteers [2]; FIG. 20 reprinted from Preller 2018, listed as Pla+LSD) | self-reported altered states of consciousness (5D-ASC short version) (Healthy Volunteers [2]; 180, 250 and 360 minutes after second drug administration, FIG. 20 reprinted from Preller 2018) | time of peak effect on low frequency LFP activity following psilocybin injection ([3]; psilocybin 10 mg/kg) | duration of decrease of delta band power ([3]; psilocybin 10 mg/kg, i.p.) | time to decrease of delta band power ([3]; psilocybin 10 mg/kg, i.p.) | sucrose preference (SP) compared to values after CMMS (C57Bl/6J mice [4]) | female urine preference compared to values after CMMS (C57Bl/6J mice [5]) | effect of ketanserin pretreatment on psilocybin-induced head-twitching (5-HT2A receptor activation) (5-HT2A receptor) | effect of ketanserin pretreatment on psilocybin-induced head-twitching (5-HT2A receptor activation) (5-HT2A receptor; listed as Ketanserin) | effect of ketanserin pretreatment on the ability of psilocybin to restore AMPA:NMDA ratios (TA-CA1 synapses) | effect of ketanserin pretreatment on LSD-induced neural changes at 75 minutes (Healthy Volunteers [1]) | effect of ketanserin pretreatment on psychotomimetic (behavioral) effects of LSD (Healthy Volunteers [2]; ketanserin 60 minutes before LSD, all timepoints) | effect of ketanserin pretreatment on locomotion (C57Bl/6J mice [6]) | effect of ketanserin pretreatment on psilocybin-induced reduction in low frequency (delta) LFP power [3] | effect of ketanserin pretreatment on psilocybin-induced reduction in low frequency (delta) LFP power ([3]; listed as Ketanserin) |
| --- | --- | --- | --- | --- | --- | --- | --- | --- | --- | --- | --- | --- | --- | --- | --- | --- | --- |
| CCN(CC)C(=O)[C@@H]1C=C2c3cccc4[nH]cc(c34)C[C@H]2N(C)C1 [LSD, lysergic acid diethylamide] | reached near full effect within 300 minutes | still intense and high above placebo | still significantly elevated from placebo | substantial self-reported altered states of consciousness |  |  |  |  |  |  |  |  |  |  |  |  |  |
| CN(C)CCc1c[nH]c2cccc(OP(=O)(O)O)c12 [psilocybin] |  |  |  |  | 15 to 25 min | > 60 min | ≤ 15 min |  |  |  |  |  |  |  |  |  |  |
| O=C(c1ccc(F)cc1)C1CCN(CCn2c(=O)[nH]c3ccccc3c2=O)CC1 [ketanserin] | did not block the neural changes induced by LSD |  |  |  |  |  |  | nor ketanserin alone (p=0.87; n=6) had a significant effect on SP; also recorded: no significant effect | nor ketanserin alone (p=0.072) had a significant effect on female urine preference; also recorded: no significant effect | prevents head-twitching; also recorded: sufficiently blocked 5-HT2A receptors; also recorded: sufficiently attenuated the activation of 5-HT2ARs | block 5-HT2AR-dependent head twitching | did not impair | many of the immediate neural changes induced by LSD at 75 minutes | blocked all of the psychotomimetic effects of LSD; also recorded: fully blocked the behavioral effects of LSD | enhances hypolocomotive effects of psilocybin; also recorded: induced hypo-locomotion | inhibited; also recorded: significantly attenuated | greatly attenuated; also recorded: block |
